Source: patent US10618918B2, “Substituted boronic acids as antimicrobials” (priority 2015, dated 2020)
Like-named read-outs stand apart in the source and are kept apart here.

What was measured:
KP1010 SHV-12 = test: Aztreonam potentiation (MPC@4), strain KP1010 SHV-12; details: minimum BLI concentration inhibiting growth with aztreonam 4 μg/mL; tested up to 40 μg/mL
EC1010 CMY-6 = test: Aztreonam potentiation (MPC@4), strain EC1010 CMY-6; details: minimum BLI concentration inhibiting growth with aztreonam 4 μg/mL; tested up to 40 μg/mL
ECL1002 = test: Aztreonam potentiation (MPC@4), strain ECL1002; details: minimum BLI concentration inhibiting growth with aztreonam 4 μg/mL; tested up to 40 μg/mL
[1] = target: T1, purified class A, C and D enzymes (β-lactamases) (UniProt P0AD64, L31Q/G234S/E235K, species not given); test: biochemical; type: biochemical
T1 construct: Ki (SHV-12, NCF), uM; other: purified SHV-12; nitrocefin (NCF) as reporter substrate
T1 sequence (P0AD64 1-286 L31Q/G234S/E235K): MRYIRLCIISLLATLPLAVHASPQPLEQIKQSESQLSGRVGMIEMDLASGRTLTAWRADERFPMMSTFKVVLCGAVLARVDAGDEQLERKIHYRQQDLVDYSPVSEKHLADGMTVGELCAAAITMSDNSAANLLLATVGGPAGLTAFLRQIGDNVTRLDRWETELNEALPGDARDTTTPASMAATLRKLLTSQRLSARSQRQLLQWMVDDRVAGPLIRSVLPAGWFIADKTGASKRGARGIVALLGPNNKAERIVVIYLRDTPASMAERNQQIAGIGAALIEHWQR

[2] = target: purified class A, C and D enzymes (β-lactamases) (Klebsiella pneumoniae, UniProt Q9F663); test: biochemical; type: biochemical; details: purified KPC-2; nitrocefin (NCF) as reporter substrate
[3] = target: T2, purified class A, C and D enzymes (β-lactamases) (Pseudomonas aeruginosa, UniProt P24735); test: biochemical; type: biochemical
T2 construct: rows headed: Ki (Pa-AmpC, NCF), uM; other: purified Pa-AmpC; nitrocefin (NCF) as reporter substrate

[4] = target: T3, purified class A, C and D enzymes (β-lactamases) (Acinetobacter baumannii, UniProt Q9L4P2); test: biochemical; type: biochemical; details: purified OXA-23; nitrocefin (NCF) as reporter substrate
T3 construct: rows headed: Ki (OXA-23, NCF), uM; other: purified OXA-23; nitrocefin (NCF) as reporter substrate

[5] = target: purified class A, C and D enzymes (β-lactamases) (Klebsiella pneumoniae, UniProt Q6XEC0); test: biochemical; type: biochemical; details: purified OXA-48; nitrocefin (NCF) as reporter substrate
[6] = target: purified class A, C and D enzymes (β-lactamases) (Enterobacter cloacae, UniProt P05364); test: biochemical; type: biochemical
[7] = target: purified class A, C and D enzymes (β-lactamases) (Escherichia coli, UniProt Q9L5C7); test: biochemical; type: biochemical; details: purified CTX-M-14; nitrocefin (NCF) as reporter substrate
AB1053 OXA-72 = test: Meropenem potentiation (MPC@8), strain AB1053 OXA-72; type: cell-based, Acinetobacter baumannii; details: minimum BLI concentration inhibiting growth with meropenem 8 μg/mL; tested up to 20 μg/mL
KP1009 CTX-M-15 = test: Aztreonam potentiation (MPC@4), strain KP1009 CTX-M-15; details: minimum BLI concentration inhibiting growth with aztreonam 4 μg/mL; tested up to 40 μg/mL
KP1004 KPC-2 [8] = test: Biapenem potentiation (MPC@1), strain KP1004 KPC-2; type: cell-based; details: for BPM MPC1 KP1004 KPC-2: minimum BLI concentration inhibiting growth with biapenem 1 μg/mL, tested up to 40 μg/mL
Experimental: (§1) Biapenem was present in the test medium at 1 μg/mL. […] Table 3 summarizes the BLI potency of biapenem potentiation (MPC@1) for two strains overexpressing class A (KPC) and class D (OXA-48) carbapenemases. Biapenem MIC for each strain is also shown.

KP1086 OXA-48 = test: Biapenem potentiation (MPC@1), strain KP1086 OXA-48; type: cell-based; details: for BPM MPC1 OXA-48 KP1086: minimum BLI concentration inhibiting growth with biapenem 1 μg/mL, tested up to 40 μg/mL
Experimental: as §1

ec308 SHV-5 = test: Aztreonam potentiation (MPC@4), strain ec308 SHV-5; details: minimum BLI concentration inhibiting growth with aztreonam 4 μg/mL; tested up to 40 μg/mL
ec302 TEM-10 = test: Aztreonam potentiation (MPC@4), strain ec302 TEM-10; details: minimum BLI concentration inhibiting growth with aztreonam 4 μg/mL; tested up to 40 μg/mL
KP1004 KPC-2 [9] = test: Aztreonam potentiation (MPC@4), strain KP1004 KPC-2; details: minimum BLI concentration inhibiting growth with aztreonam 4 μg/mL; tested up to 40 μg/mL
AB1054 OXA-23 = test: Meropenem potentiation (MPC@8), strain AB1054 OXA-23; type: cell-based, Acinetobacter baumannii; details: minimum BLI concentration inhibiting growth with meropenem 8 μg/mL; tested up to 20 μg/mL
KP1005 CTX-M-14 = test: Tigemonam potentiation (MPC@4), strain KP1005 CTX-M-14; details: minimum BLI concentration inhibiting growth with tigemonam 4 μg/mL; tested up to 40 μg/mL
PAM1032/KPC-2 = test: Biapenem potentiation MPC64 in PAM1032/KPC-2 (efflux proficient, overexpresses MexAB-OprM); type: cell-based, Pseudomonas aeruginosa; details: Pseudomonas aeruginosa; P. aeruginosa PAM1032 expressing KPC-2; biapenem alone
Experimental: (§2) Efflux of BLIs from Pseudomonas aeruginosa by the MexAB-OprM efflux pump was also evaluated. The plasmid expressing the gene encoding KPC-2 was introduced into two strains of P. aeruginosa, PAM1032 and PAM 1154 that overexpressed or lacked MexAB-OprM, respectively. […] Potency of BLIs to potentiate biapenem in these strains was determined.

PAM1154/KPC-2 = test: Biapenem potentiation MPC64 in PAM1154/KPC-2 (efflux deficient, lacks MexAB-OprM); type: cell-based, Pseudomonas aeruginosa; details: Pseudomonas aeruginosa; P. aeruginosa PAM1154 expressing KPC-2; biapenem alone
Experimental: as §2

[10] = read-out: Ki (SHV-12, NCF); purified SHV-12; nitrocefin (NCF) as reporter substrate

Compound	AZT MPC4 SHV-12 KP1010 (KP1010 SHV-12)	AZT MPC4 CMY-6 EC1010 (EC1010 CMY-6)	AZT MPC4 ECL1002 (ECL1002)	Ki [1, 10] [nM]	Ki (KPC-2, NCF), uM [2]	Ki [3] [nM]	Ki [4] [nM]	Ki (OXA-48, NCF), uM [5]	Ki (P99, NCF), uM [6]	Ki (CTX-M-14, NCF), uM [7]	MPM MPC8 AB1053 OXA-72 (AB1053 OXA-72)	AZT MPC4 CTX-M-15 KP1009 (KP1009 CTX-M-15)	BPM MPC1 KP1004 KPC-2 (KP1004 KPC-2 [8])	BPM MPC1 OXA-48 KP1086 (KP1086 OXA-48)	AZT MPC4 SHV-5 ec308 (ec308 SHV-5)	AZT MPC4 TEM-10 ec302 (ec302 TEM-10)	AZT MPC4 KPC-2 KP1004 (KP1004 KPC-2 [9])	MPM MPC8 AB1054 OXA-23 (AB1054 OXA-23)	TIG MPC4 CTX-M-14 KP1005 (KP1005 CTX-M-14)	further results
NCCn1cc(COc2ccc3c(c2C(=O)O)O[B-](O)(O)CC3)nn1 [Compound 23, Disodium; 8-[[1-(2-aminoethyl)triazol-4-yl]methoxy]-4,4-dihydroxy-5-oxa-4-boranuidabicyclo[4.4.0]deca-1(6),7,9-triene-7-carboxylate]	X (X = MPC@4 ≤ 5 μg/mL)	X (X = MPC@4 ≤ 5 μg/mL)	X (X = MPC@4 ≤ 5 μg/mL)	< 100	X (X = Ki ≤ 0.1 μM)	< 100	< 100	X (X = Ki ≤ 0.1 μM)	X (key: X = Ki ≤ 0.1 μM; Y = 0.1 μM < Ki ≤ 1 μM; Z = Ki > 1 μM)	X (X = Ki ≤ 0.1 μM)	X (X = MPC@1 ≤ 5 μg/mL)	X (X = MPC@4 ≤ 5 μg/mL)	X (X = MPC@1 ≤ 5 μg/mL)	X (X = MPC@1 ≤ 5 μg/mL)	Y (Y = 5 μg/mL < MPC@4 ≤ 20 μg/mL)	X (X = MPC@4 ≤ 5 μg/mL)	X (X = MPC@4 ≤ 5 μg/mL)	X (X = MPC@1 ≤ 5 μg/mL)	Z (Z = MPC@4 > 20 μg/mL)	
C#Cc1ccc2c(c1C(=O)[O-])O[B-](O)(O)CC2.[Na+].[Na+] [Compound 18, Disodium; 8-ethynyl-4,4-dihydroxy-5-oxa-4-boranuidabicyclo[4.4.0]deca-1(6),7,9-triene-7-carboxylate]	X (X = MPC@4 ≤ 5 μg/mL)	X (X = MPC@4 ≤ 5 μg/mL)	X (X = MPC@4 ≤ 5 μg/mL)	< 100	X (X = Ki ≤ 0.1 μM)	< 100	< 100	X (X = Ki ≤ 0.1 μM)	X (key: X = Ki ≤ 0.1 μM; Y = 0.1 μM < Ki ≤ 1 μM; Z = Ki > 1 μM)	X (X = Ki ≤ 0.1 μM)	X (X = MPC@1 ≤ 5 μg/mL)	X (X = MPC@4 ≤ 5 μg/mL)	X (X = MPC@1 ≤ 5 μg/mL)	X (X = MPC@1 ≤ 5 μg/mL)	X (X = MPC@4 ≤ 5 μg/mL)	X (X = MPC@4 ≤ 5 μg/mL)	X (X = MPC@4 ≤ 5 μg/mL)	X (X = MPC@1 ≤ 5 μg/mL)	Z (Z = MPC@4 > 20 μg/mL)	
NCCn1cc(-c2ccc3c(c2C(=O)O)O[B-](O)(O)CC3)nn1 [Compound 17, Disodium; 8-[1-(2-aminoethyl)triazol-4-yl]-4,4-dihydroxy-5-oxa-4-boranuidabicyclo[4.4.0]deca-1(6),7,9-triene-7-carboxylate]	Y (Y = 5 μg/mL < MPC@4 ≤ 20 μg/mL)	Y (Y = 5 μg/mL < MPC@4 ≤ 20 μg/mL)	Z (Z = MPC@4 > 20 μg/mL)	100 to 1000	X (X = Ki ≤ 0.1 μM)	100 to 1000	< 100	X (X = Ki ≤ 0.1 μM)	Y (key: X = Ki ≤ 0.1 μM; Y = 0.1 μM < Ki ≤ 1 μM; Z = Ki > 1 μM)	X (X = Ki ≤ 0.1 μM)	X (X = MPC@1 ≤ 5 μg/mL)	Z (Z = MPC@4 > 20 μg/mL)	X (X = MPC@1 ≤ 5 μg/mL)	X (X = MPC@1 ≤ 5 μg/mL)	Z (Z = MPC@4 > 20 μg/mL)	Z (Z = MPC@4 > 20 μg/mL)	X (X = MPC@4 ≤ 5 μg/mL)	X (X = MPC@1 ≤ 5 μg/mL)	Z (Z = MPC@4 > 20 μg/mL)	
O=C([O-])c1c(-c2ccn[nH]2)ccc2c1O[B-](O)(O)CC2.[Na+].[Na+] [Compound 15, Disodium; 4,4-dihydroxy-8-(1H-pyrazol-5-yl)-5-oxa-4-boranuidabicyclo[4.4.0]deca-1(6),7,9-triene-7-carboxylate]	X (X = MPC@4 ≤ 5 μg/mL)	X (X = MPC@4 ≤ 5 μg/mL)	X (X = MPC@4 ≤ 5 μg/mL)	< 100	X (X = Ki ≤ 0.1 μM)	< 100	< 100	X (X = Ki ≤ 0.1 μM)	X (key: X = Ki ≤ 0.1 μM; Y = 0.1 μM < Ki ≤ 1 μM; Z = Ki > 1 μM)	X (X = Ki ≤ 0.1 μM)	X (X = MPC@1 ≤ 5 μg/mL)	X (X = MPC@4 ≤ 5 μg/mL)	X (X = MPC@1 ≤ 5 μg/mL)	X (X = MPC@1 ≤ 5 μg/mL)	X (X = MPC@4 ≤ 5 μg/mL)	X (X = MPC@4 ≤ 5 μg/mL)	X (X = MPC@4 ≤ 5 μg/mL)	X (X = MPC@1 ≤ 5 μg/mL)	Z (Z = MPC@4 > 20 μg/mL)	
C[C@H]1Cc2cccc(C(=O)O)c2O[B-]1(O)O [Compound 9, Disodium; (3S)-4,4-dihydroxy-3-methy-5-oxa-4-boranuidabicyclo[4.4.0]deca-1(6),7,9-triene-7-carboxylate]	Y (Y = 5 μg/mL < MPC@4 ≤ 20 μg/mL)	Y (Y = 5 μg/mL < MPC@4 ≤ 20 μg/mL)	Y (Y = 5 μg/mL < MPC@4 ≤ 20 μg/mL)		X (X = Ki ≤ 0.1 μM)		100 to 1000	X (X = Ki ≤ 0.1 μM)		X (X = Ki ≤ 0.1 μM)	Z (Z = MPC@1 > 20 μg/mL)	Z (Z = MPC@4 > 20 μg/mL)	X (X = MPC@1 ≤ 5 μg/mL)	X (X = MPC@1 ≤ 5 μg/mL)	Y (Y = 5 μg/mL < MPC@4 ≤ 20 μg/mL)	Z (Z = MPC@4 > 20 μg/mL)	X (X = MPC@4 ≤ 5 μg/mL)	Z (Z = MPC@1 > 20 μg/mL)	Z (Z = MPC@4 > 20 μg/mL)	Ki ([1]; purified SHV-12; nitrocefin (NCF) as reporter substrate; read-out: Ki (SHV-12, NCF)): 100 to 1000 nM; Ki ([3]; purified Pa-AmpC, nitrocefin (NCF) as reporter substrate, read-out: Ki (Pa-AmpC, NCF)): < 100 nM; Ki (P99, NCF), uM ([6]; purified P99, nitrocefin (NCF) as reporter substrate): X (X = Ki ≤ 0.1 μM)
C[C@@H](O)[C@H]1C(=O)N2C(C(=O)[O-])=C(SC3Cn4cnc[n+]4C3)[C@H](C)[C@H]12 (stereo partly drawn) [Biapenem, reference compound]																				MIC (PAM1032/KPC-2): 32 µg/mL; MIC (KP1004 KPC-2 [8]; strain KP1004 KPC-2, biapenem alone): 32 µg/mL; MIC (KP1086 OXA-48; strain KP1086 OXA-48, biapenem alone): 16 µg/mL; MIC (PAM1154/KPC-2): 32 µg/mL
